Measurements taken from ChEMBL document CHEMBL5346924, “Optically activated MEK1/2 inhibitors (Opti-MEKi) as potential antimelanoma agents” (Eur J Med Chem, 2023).
The source made the active and inactive calls. No cut-off for these calls is given here.

Columns and labels:
[1] = test system: A-375; test: Antiproliferative activity against human A-375 cells harboring BRAF V600E mutant assessed as cell growth inhibition preincubated with compound for 1 hrs followed by UV irradiation for 3 mins and measured 72 hrs post compound treatment by CellTiter-Glo luminescent assay; format: functional; conditions: A-375, light or radiation study
[2] = Photoactivation of the compound assessed as photocleavage in the presence of 365 nm UV irradiation by HPLC based LC-MS analysis
[3] = test system: HCT-116; test: Antiproliferative activity against human HCT-116 cells harboring KRAS G13D mutant assessed as cell growth inhibition preincubated with compound for 1 hrs followed by UV irradiation for 5 mins and measured 72 hrs post compound treatment by CellTiter-Glo luminescent assay; format: functional; conditions: HCT-116, light or radiation study
[4] = Cytotoxicity against HEK293T cells assessed as cell growth inhibition incubated for 72 hrs by CellTiter-Glo luminescent assay; format: toxicity, cell-based, HEK-293T; conditions: human
[5] = test system: A-375; test: Antiproliferative activity against human A-375 cells harboring BRAF V600E mutant assessed as cell growth inhibition preincubated with compound for 1 hrs followed by UV irradiation for 1 min and measured 72 hrs post compound treatment by CellTiter-Glo luminescent assay; format: functional; conditions: A-375, light or radiation study
[6] = test system: HCT-116; test: Antiproliferative activity against human HCT-116 cells harboring KRAS G13D mutant assessed as cell growth inhibition incubated for 72 hrs in the absence of UV irradiation by CellTiter-Glo luminescent assay; format: functional; conditions: HCT-116, light or radiation study
[7] = Photoactivation of the compound assessed as photocleavage by measuring decay half-life in the presence of 365 nm UV irradiation by HPLC based LC-MS analysis
[8] = test system: A549; test: Antiproliferative activity against human A549 cells harboring KRas […] mutant assessed as cell growth inhibition preincubated with compound for 1 hrs followed by UV irradiation for 5 mins and measured 72 hrs post compound treatment by CellTiter-Glo luminescent assay; format: functional; conditions: A549, light or radiation study
[9] = test system: A-375; test: Antiproliferative activity against human A-375 cells harboring BRAF V600E mutant assessed as cell growth inhibition incubated for 72 hrs in the absence of UV irradiation by CellTiter-Glo luminescent assay; format: functional; conditions: A-375, light or radiation study
[10] = test system: A549; test: Antiproliferative activity against human A549 cells harboring KRAS […] mutant assessed as cell growth inhibition incubated for 72 hrs in the absence of UV irradiation by CellTiter-Glo luminescent assay; format: functional; conditions: A549, light or radiation study
[11] = test system: A-375; test: Antiproliferative activity against human A-375 cells harboring BRAF V600E mutant assessed as cell growth inhibition preincubated with compound for 1 hrs followed by UV irradiation for 5 mins and measured 72 hrs post compound treatment by CellTiter-Glo luminescent assay; format: functional; conditions: A-375, light or radiation study
[12] = Cytotoxicity against HEK293T cells assessed as cell growth inhibition preincubated with compound for 1 hrs followed by 365 nm light irradiation for 5 mins and measured 72 hrs post compound treatment by CellTiter-Glo luminescent assay; format: toxicity, cell-based, HEK-293T; conditions: human
[13] = test system: A-375; test: Antiproliferative activity against human A-375 cells harboring BRAF V600E mutant assessed as cell growth inhibition preincubated with compound for 1 hrs followed by 365 nm light irradiation for 5 mins and measured 72 hrs post compound treatment by CellTiter-Glo luminescent assay; format: functional; conditions: A-375, light or radiation study
[14] = Stability of the compound under 365 nm UV irradiation measured after 10 mins; format: physicochemical
[15] = Stability in human blood plasma assessed as half-life; format: ADME, cell-free
[16] = molecular target: Mitogen-activated protein kinase; ERK1/ERK2 (Homo sapiens, UniProt P27361+P28482); test: Inhibition of ERK1/2 phosphorylation in human A-375 cells incubated for 1 hrs in the absence of UV irradiation by Western blot analysis; format: cell-based
[17] = test system: A-375; test: Inhibition of colony formation in human A-375 cells at 10 to 300 nM incubated for 10 days by crystal violet staining based analysis; format: functional, cell-based; conditions: dose 10-300 nM, time 10.0 day
[18] = Stability of the compound in PBS-DMSO solution assessed as drug degradation measured after 12 hrs in the absence of light irradiation; format: physicochemical; conditions: read-out: Drug degradation
[19] = Photoactivation of the compound assessed as fold change in caging efficiency
[20] = Photoactivation of the compound assessed as photocleavage by measuring mirdametinib recovery in the presence of 365 nm UV irradiation by HPLC based LC-MS analysis
[21] = molecular target: Dual specificity mitogen-activated protein kinase kinase 1 (Homo sapiens, UniProt Q02750); test: Inhibition of MEK1 (unknown origin) incubated for 1 hrs in the presence of ATP by FRET-based Z'-Lyte assay
Dual specificity mitogen-activated protein kinase kinase 1, sequence (Q02750 whole entry): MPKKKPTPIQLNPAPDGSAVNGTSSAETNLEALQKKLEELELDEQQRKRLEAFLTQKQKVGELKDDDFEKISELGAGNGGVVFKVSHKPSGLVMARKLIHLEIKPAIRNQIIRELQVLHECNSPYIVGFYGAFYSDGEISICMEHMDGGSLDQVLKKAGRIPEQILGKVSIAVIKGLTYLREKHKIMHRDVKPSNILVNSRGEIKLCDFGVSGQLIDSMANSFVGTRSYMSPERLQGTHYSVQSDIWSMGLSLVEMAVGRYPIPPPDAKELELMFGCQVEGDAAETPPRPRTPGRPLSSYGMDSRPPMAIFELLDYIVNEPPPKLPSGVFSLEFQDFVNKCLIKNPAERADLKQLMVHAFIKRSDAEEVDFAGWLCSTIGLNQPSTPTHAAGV

| SMILES | GI50 [1] [nM] | GI50 [3] [nM] | GI50 at 72 h [4] [nM] | GI50 [5] [nM] | GI50 [6] [nM] | half-life [7] [min] | GI50 [8] [nM] | GI50 [9] [nM] | GI50 [10] [nM] | GI50 [11] [nM] | GI50 at 72 h [12] [nM] | GI50 [13] [nM] | other results |
| --- | --- | --- | --- | --- | --- | --- | --- | --- | --- | --- | --- | --- | --- |
| O=[N+]([O-])c1cc2c(cc1CO/C(=N\OC[C@H](O)CO)c1ccc(F)c(F)c1Nc1ccc(I)cc1F)OCO2 | 36.7 | 236 | > 10000 | 128 | > 10000 | 1.68 | 896 | 605 | > 10000 | 40.3 | – | – | Drug metabolism [2]: Metabolite_Detected |
| COc1cc(CO/C(=N\OC[C@H](O)CO)c2ccc(F)c(F)c2Nc2ccc(I)cc2F)c([N+](=O)[O-])cc1OC | 82.8 | 1050 | > 10000 | 272 | 1920 | 1.71 | 1890 | 1170 | > 10000 | 82.2 | – | – | – |
| C[C@H](NC(=O)OC(C)(C)C)C(=O)OCc1cc2c(cc1[N+](=O)[O-])OCO2 | – | – | – | – | – | – | – | > 100000 | – | – | > 100000 | > 100 | – |
| CC(OC(=O)[C@H](C)NC(=O)OC(C)(C)C)c1cc2c(cc1[N+](=O)[O-])OCO2 (some centres undefined) | – | – | – | – | – | – | – | > 100000 | – | – | > 100000 | > 100 | – |
| O=C(NOC[C@H](O)CO)c1ccc(F)c(F)c1Nc1ccc(I)cc1F [MIRDAMETINIB] | 1.59 | 52.5 | > 10000 | 1.37 | 44.7 | – | 10.6 | 1.28 | 4.94 | 1.49 | – | – | Stability [14]: Stable; half-life [15]: > 289 min; EC50 [16]: ~ 1.2 nM; inhibition [17]: Active |
| CCN(CC)c1ccc2c(COC(=O)[C@H](C)NC(=O)OC(C)(C)C)cc(=O)oc2c1 | – | – | – | – | – | – | – | > 100000 | – | – | > 100000 | 15.8 | – |
| O=C(NOCCO)c1ccc(F)c(F)c1Nc1ccc(I)cc1F | – | – | – | – | – | – | – | 3.36 | – | – | – | – | – |
| COc1cc(COCCONC(=O)c2ccc(F)c(F)c2Nc2ccc(I)cc2F)c([N+](=O)[O-])cc1OC | 16 | – | – | 43.4 | – | 0.52 | – | 7130 | – | 9.4 | – | – | – |
| COc1cc(COC(=O)[C@H](C)NC(=O)OC(C)(C)C)c([N+](=O)[O-])cc1OC | – | – | – | – | – | – | – | > 100000 | – | – | > 100000 | > 100 | – |
| C[C@H](NC(=O)OC(C)(C)C)C(=O)O | – | – | – | – | – | – | – | > 100000 | – | – | > 100000 | > 100 | – |
| COc1cc(C(C)OC(=O)[C@H](C)NC(=O)OC(C)(C)C)c([N+](=O)[O-])cc1OC (some centres undefined) | – | – | – | – | – | – | – | > 100000 | – | – | > 100000 | > 100 | – |
| COc1ccc(CN(c2ccc(I)cc2F)c2c(C(=O)NOC[C@H](O)CO)ccc(F)c2F)cc1OC | – | – | – | – | – | – | – | 1520 | – | – | – | – | – |
| CC(O/C(=N\OC[C@H](O)CO)c1ccc(F)c(F)c1Nc1ccc(I)cc1F)c1cc2c(cc1[N+](=O)[O-])OCO2 (some centres undefined) | 9.7 | 169 | > 10000 | 28.6 | > 10000 | 1.26 | 478 | 3610 | > 10000 | 7.17 | – | – | Drug metabolism [2]: Metabolite_Detected |
| COc1cc(CN(c2ccc(I)cc2F)c2c(C(=O)NOC[C@H](O)CO)ccc(F)c2F)c([N+](=O)[O-])cc1OC | 3.76 | – | – | 9.95 | – | 0.19 | – | 18.1 | – | 5.59 | – | – | degraded at 12 h [18]: > 30% |
| CCN(CC)c1ccc2c(CO/C(=N\OC[C@H](O)CO)c3ccc(F)c(F)c3Nc3ccc(I)cc3F)cc(=O)oc2c1 | 123 | 1750 | > 10000 | 222 | 1500 | 0.2 | 270 | 9800 | > 10000 | 108 | – | – | fold change (FC) [19]: > 5085; Drug recovery [20]: < 10%; IC50 [21]: > 30000 nM |
